Assay [1] concerns the target T1, DLG1 PDZ1 (DLG1–1) (Homo sapiens, UniProt Q12959). As to the kind of experiment: Fluorescence polarization competition, DLG1–1. The format is binding. (In general: Fluorescence polarisation rises when a labelled molecule tumbles more slowly, as on binding a larger partner.)
Assay [2] addresses T2, SCRIB PDZ1 (SCRIB-1) (Homo sapiens, UniProt Q14160). Kind of assay: Fluorescence polarization competition, SCRIB-1. The assay is classed as binding.
The target in assay [3] is SNX27 PDZ (SNX27) (Rattus norvegicus, UniProt Q8K4V4). As to the kind of experiment: Fluorescence polarization competition, SNX27. The assay is classed as binding.
In assay [4] the target is T3, MAGI1 PDZ2 (MAGI1–2) (Homo sapiens, UniProt Q96QZ7). Kind of assay: Fluorescence polarization competition. The format is binding.
The target in assay [5] is T4, PTPN3 PDZ (PTPN3) (Homo sapiens, UniProt P26045).
T4 sequence (P26045 505-597): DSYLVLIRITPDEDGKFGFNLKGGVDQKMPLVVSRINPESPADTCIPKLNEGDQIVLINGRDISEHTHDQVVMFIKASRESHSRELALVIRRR
Kind of assay: Fluorescence polarization competition. The format is binding.

For assay [6], the target named is T5, NHERF1 PDZ1 (N1P1) (Homo sapiens, UniProt O14745).
T5 sequence (O14745 1-139): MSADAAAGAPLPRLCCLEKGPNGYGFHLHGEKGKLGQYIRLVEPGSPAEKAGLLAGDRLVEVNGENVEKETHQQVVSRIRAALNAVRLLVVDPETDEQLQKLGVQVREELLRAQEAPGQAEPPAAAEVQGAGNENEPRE
As to the kind of experiment: Fluorescence polarization competition, N1P1.

The target in assay [7] is NHERF2 PDZ2 (N2P2) (Homo sapiens, UniProt Q15599). As to the kind of experiment: Fluorescence polarization competition, N2P2.
The target in assay [8] is T1, DLG1 PDZ1 (DLG1–1). As to the kind of experiment: Fluorescence polarization direct binding of reporter peptide, DLG1–1.
Assay [9] addresses T3, MAGI1 PDZ2 (MAGI1–2). As to the kind of experiment: Fluorescence polarization direct binding of reporter peptide, MAGI1–2.
The target of assay [10] is T4, PTPN3 PDZ (PTPN3). As to the kind of experiment: Fluorescence polarization direct binding of reporter peptide, PTPN3.
In assay [11] the target is T2, SCRIB PDZ1 (SCRIB-1). As to the kind of experiment: Fluorescence polarization direct binding of reporter peptide, SCRIB-1.
Assay [12] deals with T6, TIP-1 PDZ (Homo sapiens, UniProt O14907).
T6 sequence (O14907 9-120): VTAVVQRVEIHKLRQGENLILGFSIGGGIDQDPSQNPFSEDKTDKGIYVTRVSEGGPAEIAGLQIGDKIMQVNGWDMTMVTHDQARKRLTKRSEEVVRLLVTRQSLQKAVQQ
As to the kind of experiment: Fluorescence polarization competition, TIP-1 PDZ.

Assay [13] deals with CAL PDZ (Homo sapiens, UniProt Q9HD26). Kind of assay: Fluorescence polarization competition, CAL PDZ.

Residues, ends and D or L forms follow the SMILES beside them.

The Ki is the dissociation constant of the complex between target and ligand, obtained from inhibition or displacement. Low values mean tighter binding, high ones weaker binding. In general, IC50 refers to the concentration at which inhibition is half-maximal. Low readings indicate inhibition by little substance, high ones a need for much substance. In the case of `CC(C)C[C@H](NC(=O)[C@H](CCC(N)=O)NC(=O)[C@@H](NC(=O)[C@H](CC(=O)O)NC(=O)[C@H](CCC(N)=O)NC(=O)[C@@H](NC(=O)[C@@H](NC(=O)[C@H](CCCNC(=N)N)NC(=O)[C@H](CO)NC(=O)[C@@H](N)CO)[C@@H](C)O)C(C)C)[C@@H](C)O)C(=O)O` [CFTRP1Q] (H-SSRTVQDTQL-OH), the Ki turned out to be 250 ± 150 µM in assay [1]; 150 ± 60 µM in [2]; 0.26 ± 0.05 µM in [3]; 25 ± 7 µM in assay [6]; 3.1 ± 0.5 µM in assay [7]. Further, the results for the IC50 in [4] and in [5] were 420 ± 210 µM and 51 ± 14 µM, respectively.

For `CC(C)C[C@H](NC(=O)[C@H](CCCNC(=N)N)NC(=O)[C@@H](NC(=O)[C@H](CC(=O)O)NC(=O)[C@H](CCCNC(=N)N)NC(=O)[C@@H](NC(=O)[C@@H](NC(=O)[C@H](CCCNC(=N)N)NC(=O)[C@H](CO)NC(=O)[C@@H](N)CO)[C@@H](C)O)C(C)C)[C@@H](C)O)C(=O)O` [CFTRP4R] (H-SSRTVRDTRL-OH), the Ki in assay [1] turned out to be 510 ± 230 µM; in [2], 370 ± 170 µM; in assay [3], 0.44 ± 0.06 µM; in assay [6], 6.9 ± 2.7 µM; in [7] it was 1.7 ± 0.5 µM. The IC50 is 460 ± 200 µM in [4] and 85 ± 39 µM in [5].

For the compound `CC(C)C[C@H](NC(=O)[C@H](CCCNC(=N)N)NC(=O)[C@@H](NC(=O)[C@H](CC(=O)O)NC(=O)[C@H](CCC(N)=O)NC(=O)[C@H](CCCNC(=N)N)NC(=O)[C@@H](NC(=O)[C@H](CCCNC(=N)N)NC(=O)[C@H](CO)NC(=O)[C@@H](N)CO)[C@@H](C)O)[C@@H](C)O)C(=O)O` [CFTRP5R] (H-SSRTRQDTRL-OH), the Ki in [1] worked out at 430 ± 200 µM; in assay [2], 50 ± 10 µM; in assay [3], 7.4 ± 4.5 µM; in assay [6] it was 1.8 ± 0.3 µM; in assay [7], 0.49 ± 0.38 µM. Moreover, the IC50 in assay [4] was 220 ± 50 µM; in assay [5] it was 120 ± 20 µM.

One may read the Kd as the constant that tells how readily two partners part at equilibrium. A high value points to weaker binding. Take `CC(C)C[C@H](NC(=O)[C@H](CCC(N)=O)NC(=O)[C@@H](NC(=O)[C@H](CCC(=O)O)NC(=O)[C@H](CCCNC(=N)N)NC(=O)[C@H](CCCNC(=N)N)NC(=O)[C@@H](NC(=O)[C@H](CCCNC(=N)N)NC(=O)[C@H](CO)NC(=O)[C@H](CO)NC(=S)Nc1ccc2c(c1)C(=O)OC21c2ccc(O)cc2Oc2cc(O)ccc21)[C@@H](C)O)[C@@H](C)O)C(=O)O` [F*-HPV16 E6]: the dissociation constant (Kd) was found to be 17 ± 4 µM in assay [8], 12 ± 4 µM in assay [9], 2 ± 1 µM in assay [10] and 5.1 ± 1.7 µM in [11].

In the case of `CC(C)C[C@H](NC(=O)[C@H](CCC(N)=O)NC(=O)[C@@H](NC(=O)[C@H](CCC(=O)O)NC(=O)[C@H](CCCNC(=N)N)NC(=O)[C@H](CCCNC(=N)N)NC(=O)[C@@H](NC(=O)[C@H](CCCNC(=N)N)NC(=O)[C@H](CO)NC(=O)[C@@H](N)CO)[C@@H](C)O)[C@@H](C)O)C(=O)O` [HPV16 E6], the inhibition constant (Ki) in assay [1] is 22 ± 12 µM; in assay [2], 20 ± 7 µM; in assay [3], 1.5 ± 0.5 µM; in [6], 100 ± 50 µM; in assay [7], 17 ± 6 µM; in assay [12] it was 11 ± 1 µM. Moreover, the IC50 came out at 3.7 ± 0.1 µM in [4] and 10.1 µM in [5].

Take `CC(C)C[C@H](NC(=O)[C@H](CCCNC(=N)N)NC(=O)[C@@H](NC(=O)[C@H](CCC(=O)O)NC(=O)[C@H](CCCNC(=N)N)NC(=O)[C@H](CCCNC(=N)N)NC(=O)[C@@H](NC(=O)[C@H](CCCNC(=N)N)NC(=O)[C@H](CO)NC(=O)[C@@H](N)CO)[C@@H](C)O)[C@@H](C)O)C(=O)O` [HPVP1R] (H-SSRTRRETRL-OH): the Ki in assay [1] was 39 ± 11 µM; in [2] it was 13 ± 2 µM; in assay [3], 2.1 ± 0.7 µM; in assay [6], 8.8 ± 3.4 µM; in assay [7] it was 6.9 ± 1.1 µM; in assay [13], 42 ± 10 µM. This compound also yielded a Ki in [12] of 22 ± 5 µM. Further, the IC50 in assay [4] was 5.2 ± 2.4 µM; in assay [5] it was 18 ± 1 µM.

For `CC(C)C[C@H](NC(=O)[C@H](CCC(N)=O)NC(=O)[C@@H](NC(=O)[C@H](CCC(=O)O)NC(=O)[C@H](CCC(N)=O)NC(=O)[C@H](CCCNC(=N)N)NC(=O)[C@@H](NC(=O)[C@H](CCCNC(=N)N)NC(=O)[C@H](CO)NC(=O)[C@@H](N)CO)[C@@H](C)O)[C@@H](C)O)C(=O)O` [HPVP4Q] (H-SSRTRQETQL-OH), the Ki in assay [1] was 23 ± 6 µM; in [2], 13 ± 2 µM; in [3] it was 0.51 ± 0.22 µM; in assay [6], 21 ± 7 µM; in [7] it was 5.2 ± 0.6 µM; in [13], 56 ± 6 µM. Affinity in [12] was put at a Ki of 34 ± 2 µM. The values for the IC50 in assay [4] and in [5] were 3.8 ± 2.1 µM and 18 ± 5 µM, respectively.

Regarding `CC(C)C[C@H](NC(=O)[C@H](CCC(N)=O)NC(=O)[C@@H](NC(=O)[C@H](CCC(=O)O)NC(=O)[C@H](CCCNC(=N)N)NC(=O)[C@@H](NC(=O)[C@@H](NC(=O)[C@H](CCCNC(=N)N)NC(=O)[C@H](CO)NC(=O)[C@@H](N)CO)[C@@H](C)O)C(C)C)[C@@H](C)O)C(=O)O` [HPVP5V] (H-SSRTVRETQL-OH), the Ki in assay [1] was determined as 13 ± 4 µM; in assay [2], 4.5 ± 2.8 µM; in assay [3], 0.11 ± 0.03 µM; in assay [6], 67 ± 28 µM; in assay [7] it was 7 ± 3.6 µM; in assay [13] it was 190 ± 10 µM. In addition, in [12], the Ki was determined as 35 ± 4 µM. The values for the IC50 in assay [4] and in [5] were 4.4 ± 1.1 µM and 3.4 ± 0.3 µM, respectively.

(Values after publication PMC9881875 (bioRxiv, 2023).)
